IC90 data for 14 compounds are collected here from patent US12421211B2, “Heterocyclic compounds” (Hoffmann-La Roche Inc., priority 2021, dated 2025).

The assay deals with Acinetobacter baumannii ATCC17961. Briefly: Antimicrobial susceptibility testing: 90% growth inhibitory concentration (IC90) determination. The format is cell-based. The conditions noted are these: Acinetobacter baumannii, ATCC17961, 16 h, read-out: ATCC 17961 IC90. An outline of the steps: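 Growth inhibition derived in log phase from OD600 kinetics (every 20 minutes, 16h, 35±2° C) of ATCC17961 in Iso-Sensitest medium, inoculum ~5×10^5 CFU/ml. Compounds tested as twofold series, 10 points (e.g. 50 to 0.097 μM final); IC90 and IC50 reported.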

[1] abbreviates: 90% growth inhibitory concentration, Acinetobacter baumannii ATCC17961, Iso-Sensitest broth, OD 600 nm over 16 h.

Counter-ions that a name gives are not always drawn. Like-named read-outs stand apart in the source and are kept apart here.

One may read the IC90 as the concentration needed for an effect of 90%. As to `Cc1n[nH]cc1-c1ccc(-c2cnc(C(=O)Nc3ccc(C(=O)N4CCN(C(=O)CN(C)C)CC4)c(Cl)c3)n2C)c(F)c1F` [Example D34, N-[3-chloro-4-[4-[2-(dimethylamino)acetyl]piperazine-1-carbonyl]phenyl]-5-[2,3-difluoro-4-(3-methyl-1H-pyrazol-4-yl)phenyl]-1-methyl-imidazole-2-carboxamide; formic acid], the IC90 under setting [1] came out at 110 nM. Turning to `Cc1n[nH]cc1-c1ccc(-c2cnc(C(=O)Nc3ccc(C(=O)N4CCN(C(=O)C[N+](C)(C)C)CC4)c(Cl)c3)n2C)c(F)c1F` [Example D35, [2-[4-[2-chloro-4-[[5-[2,3-difluoro-4-(3-methyl-1H-pyrazol-4-yl)phenyl]-1-methyl-imidazole-2-carbonyl]amino]benzoyl]piperazin-1-yl]-2-oxo-ethyl]-trimethyl-ammonium; formate], the 90% effect concentration (IC90) under setting [1] is 170 nM.

Consider `Cc1n[nH]cc1-c1ccc(-c2cnc(C(=O)Nc3ccc(C(=O)N4CCN(C(=O)[C@@H]5C[C@@H](O)CN5)CC4)c(Cl)c3)n2C)c(F)c1F` [Example D36, N-[3-chloro-4-[4-[(2S,4R)-4-hydroxypyrrolidine-2-carbonyl]piperazine-1-carbonyl]phenyl]-5-[2,3-difluoro-4-(3-methyl-1H-pyrazol-4-yl)phenyl]-1-methyl-imidazole-2-carboxamide], for which the IC90 under setting [1] came out at 88 nM. Take `COCCn1ncc(-c2ccc(-c3cnc(C(=O)Nc4ccc(C(=O)N5CCC(NS(=O)(=O)C6CC[N+](C)(C)CC6)CC5)c(Cl)c4)n3C)c(F)c2F)c1C` [Example D37, N-[3-chloro-4-[4-[(1,1-dimethylpiperidin-1-ium-4-yl)sulfonylamino]piperidine-1-carbonyl]phenyl]-5-[2,3-difluoro-4-[1-(2-methoxyethyl)-5-methyl-pyrazol-4-yl]phenyl]-1-methyl-imidazole-2-carboxamide; formate]: the IC90 under setting [1] came out at 150 nM. In the case of `COCCn1nc(C)c(-c2ccc(-c3cnc(C(=O)Nc4ccc(C(=O)N[C@H]5[C@@H]6CN(C(=O)[C@@H]7C[C@@H](O)C[N+]7(C)C)C[C@@H]65)c(Cl)c4)n3C)c(F)c2F)c1C` [Example D38, N-[3-chloro-4-[[(1R,5S)-3-[(2S,4R)-4-hydroxy-1,1-dimethyl-pyrrolidin-1-ium-2-carbonyl]-3-azabicyclo[3.10]hexan-6-yl]carbamoyl]phenyl]-5-[2,3-difluoro-4-[1-(2-methoxyethyl)-3,5-dimethyl-pyrazol-4-yl]phenyl]-1-methyl-imidazole-2-carboxamide; formate], the IC90 under setting [1] amounted to 150 nM. With `COCCn1ncc(-c2ccc(-c3cnc(C(=O)Nc4ccc(C(=O)N[C@H]5[C@@H]6CN(C(=O)[C@@H]7C[C@@H](O)C[N+]7(C)C)C[C@@H]65)c(Cl)c4)n3C)c(F)c2F)c1C` [Example D40, N-[3-chloro-4-[[(1S,5R)-3-[(2S,4R)-4-hydroxy-1,1-dimethyl-pyrrolidin-1-ium-2-carbonyl]-3-azabicyclo[3.10]hexan-6-yl]carbamoyl]phenyl]-5-[2,3-difluoro-4-[1-(2-methoxyethyl)-3,5-dimethyl-pyrazol-4-yl]phenyl]-1-methyl-imidazole-2-carboxamide; formate], the 90% effect concentration (IC90) under setting [1] came out at 77 nM. Take `Cc1n[nH]cc1-c1ccc(-c2cnc(C(=O)Nc3ccc(C(=O)N4CCN(C(=O)CCC[N+](CCCN)(CCCN)CC(=O)O)CC4)c(Cl)c3)n2C)c(F)c1F` [Example D41, bis(3-aminopropyl)-(carboxymethyl)-[4-[4-[2-chloro-4-[[5-[2,3-difluoro-4-(3-methyl-1H-pyrazol-4-yl)phenyl]-1-methyl-imidazole-2-carbonyl]amino]benzoyl]piperazin-1-yl]-4-oxo-butyl]ammonium; formic acid; formate]: the IC90 under setting [1] stood at 61 nM. As for `Cc1n[nH]cc1-c1ccc(-c2cnc(C(=O)Nc3ccc(C(=O)N4CCN(C(=O)CCC[N+](CC(=O)O)(CC5CNC5)CC5CNC5)CC4)c(Cl)c3)n2C)c(F)c1F` [Example D42, bis(azetidin-3-ylmethyl)-(carboxymethyl)-[4-[4-[2-chloro-4-[[5-[2,3-difluoro-4-(3-methyl-1H-pyrazol-4-yl)phenyl]-1-methyl-imidazole-2-carbonyl]amino]benzoyl]piperazin-1-yl]-4-oxo-butyl]ammonium; formic acid; formate], the IC90 under setting [1] was 60 nM. For `Cc1n[nH]c(C)c1-c1ccc(-c2cnc(C(=O)Nc3ccc(C(=O)N4CCN(C(=O)[C@@H]5C[C@@H](O)C[N+]5(C)C)CC4)c(Cl)c3)n2C)c(F)c1F` [Example D43, N-[3-chloro-4-[4-[(2S,4R)-4-hydroxy-1,1-dimethyl-pyrrolidin-1-ium-2-carbonyl]piperazine-1-carbonyl]phenyl]-5-[4-(3,5-dimethyl-1H-pyrazol-4-yl)-2,3-difluoro-phenyl]-1-methyl-imidazole-2-carboxamide; formate], the IC90 came out at 810 nM. Regarding `COCCn1ncc(-c2ccc(-c3cnc(C(=O)Nc4ccc(C(=O)N5CCN(C(=O)C6(OC)CCNCC6)CC5)c(Cl)c4)n3C)c(F)c2F)c1C` [Example D44, N-[3-chloro-4-[4-(4-methoxypiperidine-4-carbonyl)piperazine-1-carbonyl]phenyl]-5-[2,3-difluoro-4-[1-(2-methoxyethyl)-5-methyl-pyrazol-4-yl]phenyl]-1-methyl-imidazole-2-carboxamide], the IC90 under setting [1] came to 160 nM. The same measure, in the same setting: the value for `COCCn1ncc(-c2ccc(-c3cnc(C(=O)Nc4ccc(C(=O)N5CCN(C(=O)C[C@@H]6CCNC6)CC5)c(Cl)c4)n3C)c(F)c2F)c1C` [Example E2, N-[3-chloro-4-[4-[2-[(3S)-pyrrolidin-3-yl]acetyl]piperazine-1-carbonyl]phenyl]-5-[2,3-difluoro-4-[1-(2-methoxyethyl)-5-methyl-pyrazol-4-yl]phenyl]-1-methyl-imidazole-2-carboxamide; formic acid] was 48 nM; that for `COCCn1ncc(-c2ccc(-c3cnc(C(=O)Nc4ccc(C(=O)N5CCN(C(=O)C6CCNCC6)CC5)c(Cl)c4)n3C)c(F)c2C)c1C` [Example E3, N-[3-chloro-4-[4-(piperidine-4-carbonyl)piperazine-1-carbonyl]phenyl]-5-[2-fluoro-4-[1-(2-methoxyethyl)-5-methyl-pyrazol-4-yl]-3-methyl-phenyl]-1-methyl-imidazole-2-carboxamide; formic acid] was 490 nM.

In the case of `COCCn1ncc(-c2ccc(-c3cnc(C(=O)Nc4ccc(C(=O)N5CCN(C(=O)C6CCNCC6)CC5)c(Cl)c4)n3C)c(C)c2F)c1C` [Example E5, N-[3-chloro-4-[4-(piperidine-4-carbonyl)piperazine-1-carbonyl]phenyl]-5-[3-fluoro-4-[1-(2-methoxyethyl)-5-methyl-pyrazol-4-yl]-2-methyl-phenyl]-1-methyl-imidazole-2-carboxamide; formic acid], the IC90 under setting [1] was found to be 180 nM. Regarding `Cn1c(-c2ccc(-c3cn(CCOC(F)F)nc3C(F)(F)F)c(F)c2F)cnc1C(=O)Nc1ccc(C(=O)N2CCN(C(=O)C3CCNCC3)CC2)c(Cl)c1` [Example E6, N-[3-chloro-4-[4-(piperidine-4-carbonyl)piperazine-1-carbonyl]phenyl]-5-[4-[1-[2-(difluoromethoxy)ethyl]-3-(trifluoromethyl)pyrazol-4-yl]-2,3-difluoro-phenyl]-1-methyl-imidazole-2-carboxamide; formic acid], under setting [1], the IC90 came out at 950 nM.
